Here are results for three compounds from BindingDB's records for doi:10.7270/Q2P26WT9 (The Scripps Research Institute Molecular Screening Center, 2014).

pIC50: −log10 of the molar value.

This experiment has as its target T1, RNA-editing ligase 1, mitochondrial (Trypanosoma brucei brucei, UniProt P86926).
T1 sequence (P86926 whole entry): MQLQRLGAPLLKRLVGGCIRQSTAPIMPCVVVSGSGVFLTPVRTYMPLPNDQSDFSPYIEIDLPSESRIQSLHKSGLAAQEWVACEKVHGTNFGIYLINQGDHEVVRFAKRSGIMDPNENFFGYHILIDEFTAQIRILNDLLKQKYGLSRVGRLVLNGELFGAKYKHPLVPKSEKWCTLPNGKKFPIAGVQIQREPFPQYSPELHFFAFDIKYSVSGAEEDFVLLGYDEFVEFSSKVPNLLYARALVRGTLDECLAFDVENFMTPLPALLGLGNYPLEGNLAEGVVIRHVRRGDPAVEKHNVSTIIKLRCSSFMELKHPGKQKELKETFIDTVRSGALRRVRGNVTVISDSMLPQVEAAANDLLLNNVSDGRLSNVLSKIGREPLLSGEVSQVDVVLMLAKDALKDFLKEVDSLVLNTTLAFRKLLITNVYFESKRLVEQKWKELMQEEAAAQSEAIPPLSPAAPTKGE
Description: TbREL1 ligase inhibitors, dose response, biochemical, fluorescence, Trypanosoma brucei (AID 1117295).

One may read the pIC50 as −log10 of the IC50, conventionally taken in molar units. Read a low pIC50 as a high IC50.

As to `NC(=NNC=c1ccc(=C2C=CC(=O)C(C(=O)O)=C2)o1)N[N+](=O)[O-]` [5-(5-{2-[amino(nitroimino)methyl]carbonohydrazonoyl}-2-furyl)-2-hydroxybenzoic acid], the negative logarithm of the IC50 (pIC50) is 4.67.

The compound `COc1ccc(Cn2c(Nc3cc(Cl)ccc3OC)c3[nH]cccc-3c2=O)cc1` [7-[(5-chloranyl-2-methoxy-phenyl)amino]-6-[(4-methoxyphenyl)methyl]-7H-pyrrolo[3,4-b]pyridin-5-one] gave a negative logarithm of the IC50 (pIC50) of 4.79.

The compound `Oc1ccccc1CN=Nc1cc(N2CCCC2)nc(N2CCCC2)n1` [(6E)-6-[[[2,6-bis(1-pyrrolidinyl)-4-pyrimidinyl]hydrazo]methylidene]-1-cyclohexa-2,4-dienone] showed a negative-log IC50 (pIC50) of less than 4.02.
